Source: US20130266557A1, “METHODS FOR TREATMENT OF A SARCOMA USING AN EPIMETABOLIC SHIFTER (COENZYME Q10)” (priority 2009, published 2013)

Assays:
[1] = tested on: NCIES0808 cells; experiment: Real-time PCR, Human Mitochondrial arrays; assay type: cell-based; settings: CoQ10 doses and time points examined (50/100 uM; 3-48 hours)
Experimental: NCIES0808 cells were plated in T25 flasks at a density of 2×10^6 cells per flask in media or media containing 50 uM/100 uM Q10. All treatment groups were run in triplicate. Cells were harvested at 0, 3, 6, 24 or 48 hours. Pictures were taken to examine cell morphology before harvesting. To harvest cells, media was removed but saved to be able to collect floating apoptotic cells. Cells were trypsinized with 1 ml of trypsin-EDTA and the enzyme action was stopped by addition of 4 ml complete media. Trypsinized cells were added to the appropriate tube containing the media with dead cells. Cells were centrifuged at 1200 rpm for 5 minutes and media was aspirated leaving behind the cell pellet for RNA extraction. RNA isolation from cell pellets was carried out with the RNeasy kit (Qiagen, Valencia Calif.) according to the manufacturer's instructions. RNA samples were eluted from spin columns in water; absorbance was measured at 260 nm, 230 nm and 280 nm. The purity of RNA was evaluated by the 260/230 and 280/230 ratios. The concentration of RNA in all of the samples was calculated from absorbance values at […]. […] The ct values from each of the samples were normalized to three housekeeping genes and fold regulation of Q10 treated groups was compared to time matched controls from cells grown in regular media was calculated. […]

[2] = tested on: mitochondrial preparation of NICES0808 sample; experiment: 2-D gel analysis of mitochondrial preparation; assay type: cell-based, human; settings: direction not given
Experimental: NCIES0808 cells were treated with Q10 separately in larger volumes for isolation of sufficient mitochondria for proteomic analysis. Cells were treated with media, 50 uM Q10 or 100 uM Q10 for 0, 3, 6, 24 and 48 hours in T175 flasks. Two flasks were grown for each condition and cells from the two were pooled during harvesting. After the required treatment time, cells were trypsinized and washed twice in ice cold TBS. Pelleted cells were snap frozen in liquid nitrogen and frozen at −80° C. until mitochondria were isolated. Mitochondria were isolated using manufacturers instructions available with the MitoProfile Mitosciences Isolation Kit for Cultured Cells (Mitosciences Inc, Eugene, Oreg.).
Before isoelectric focusing (IEF), samples were solubilized in 40 mM Tris, 7 M urea, 2 M thiourea, and 1% C7 zwitterionic detergent, reduced with tributylphosphine, and alkylated with 10 mM acrylamide for 90 min at room temperature. After the sample was run through a 10-kDa cutoff Amicon Ultra device with at least 3 volumes of the resuspension buffer, consisting of 7 M urea, 2 M thiourea, and 2% CHAPS to reduce the conductivity of the sample. One hundred micrograms of protein were subjected to IEF on 11-cm pH 3 to 10, pH 4 to 7 or pH 6 to 11 immobilized pH gradient strips (GE, Amersham, USA) to 100,000 volts hour. After IEF, immobilized pH gradient strips were equilibrated in 6 M urea, 2% SDS, 50 mM Tris-acetate buffer, pH 7.0, and 0.01% bromphenol blue and subjected to SDS-polyacrylamide gel electrophoresis on 8 to 16% Tris-HCl Precast Gel, 1 mm (Bio-Rad, USA). The gels were run in duplicate. They were fixed, stained in SYPRO Ruby, 80 mL/gel (Invitrogen, USA) and imaged on Fuji FLA-5100 laser scanner.
A mitochondrial preparation of NICES0808 sample was also analyzed for proteins and below, in Table 8, is the list of proteins the amount of which was modulated following treatment with CoQ10.

[3] = tested on: NCI-ES-0808 cells; experiment: Cell morphology by microscopy; assay type: cell-based, human
Experimental: NCIES0808 cells were plated in T25 flasks at a density of 2×10^6 cells per flask in media or media containing 50 uM/100 uM Q10. All treatment groups were run in triplicate. Cells were harvested at 0, 3, 6, 24 or 48 hours. Pictures were taken to examine cell morphology before harvesting. To harvest cells, media was removed but saved to be able to collect floating apoptotic cells. Cells were trypsinized with 1 ml of trypsin-EDTA and the enzyme action was stopped by addition of 4 ml complete media. Trypsinized cells were added to the appropriate tube containing the media with dead cells. Cells were centrifuged at 1200 rpm for 5 minutes and media was aspirated leaving behind the cell pellet for RNA extraction. […] RNA samples were eluted from spin columns in water; absorbance was measured at 260 nm, 230 nm and 280 nm. The purity of RNA was evaluated by the 260/230 and 280/230 ratios. The concentration of RNA in all of the samples was calculated from absorbance values at […]. […] The ct values from each of the samples were normalized to three housekeeping genes and fold regulation of Q10 treated groups was compared to time matched controls from cells grown in regular media was calculated.
The morphology of NCI-ES-0808 cells was monitored following treatment with CoQ10. […]

[4] = tested on: Ewing JDT cell line; experiment: Protein expression in Ewing JDT cell line; assay type: cell-based
[5] = tested on: cancer cell lines (SK-MEL-28, SK-MEL-2, SCC, PaCa2, HEP-G2) and control keratinocytes and melanocytes; experiment: Sensitivity and apoptotic response of a cell line panel (Example 1); assay type: cell-based; settings: various levels of Coenzyme Q10
Experimental: In a first set of experiments, changes to cell morphology/physiology were evaluated by examining the sensitivity and apoptotic response of cells to CoQ10. A panel of skin cell lines including a control cell lines (primary culture of keratinocytes and melanocytes) and several skin cancers cell lines (SK-MEL-28, a non-metastatic skin melanoma; SK-MEL-2, a metastatic skin melanoma; or SCC, a squamous cell carcinoma; PaCa2, a pancreatic cancer cell line; or HEP-G2, a liver cancer cell line) were treated with various levels of Coenzyme Q10.

[6] = tested on: normal fibroblast; experiment: Bcl2 level on co-administration with VEGF; assay type: cell-based; settings: co-administration of CoQ-10 and VEFG
Source text: The term “Multidimensional Intracellular Molecule (MIM)”, is an isolated version or synthetically produced version of an endogenous molecule that is naturally produced by the body and/or is present in at least one cell of a human. A MIM is capable of entering a cell and the entry into the cell includes complete or partial entry into the cell as long as the biologically active portion of the molecule wholly enters the cell. MIMs are capable of inducing a signal transduction and/or gene expression mechanism within a cell. MIMs are multidimensional because the molecules have both a therapeutic and a carrier, e.g., drug delivery, effect. MIMs also are multidimensional because the molecules act one way in a disease state and a different way in a normal state.

[7] = tested on: skin cancer cells; settings: culture of skin cancer cells but not normal cells; cited from earlier work
[8] = tested on: cancer patients; settings: eight case histories, oral CoQ10; cited from earlier work

For Coenzyme Q10 [CoQ10], the “Genes modulated on Human Mitochondrial arrays” value [1] was “did not reveal any modulated genes”, the “Proteins Modulated in NCIES0808 cells treated with CoQ10 (value = protein)” value (“Proteins Modulated” for short) ([2]; gel spot 37) was “eukaryotic translation elongation factor 1 beta 2” and the “Proteins Modulated” value ([2]; gel spot 108) was “retinoblastoma binding protein 4 isoform A”. For the same substance, the “Proteins Modulated” value ([2]; gel spot 172) was “cytoplasmic dynein IC-2”, the “Proteins Modulated” value ([2]; gel spot 227) was “chaperonin containing TCP1, subunit 3” and the “Proteins Modulated” value ([2]; gel spot 1000) was “TAR DNA binding protein”. The “Differences in cell number or morphology (FIG. 1 legend)” value ([3]; 3, 6, 24, 48 hours, 50 uM and 100 uM Q10) was “no distinct differences in either cell number or morphology”, the “Differences in morphology, apoptotic cells or cell number by microscopy” value ([3]; among treatment groups, 3 hrs and 6 hrs post treatment (FIG. 1)) was “No differences in morphology, number of visually ascertainable apoptotic cells or cell number” and the “increase in Caspase 3 expression” value ([4]; 100 μM CoQ10, within one hour after exposure) was 30%. For the same substance, the “Caspase 3 expression” value ([4]; one hour after CoQ10 treatment) was “significant increase”, the p53 expression ([4]; one hour after treatment with CoQ10) was “significant increase” and the “Apoptotic response of cancer vs control cell lines” value [5] was “induction of apoptosis and cell death in the cancer cells only”. For the same substance, the “Level of Bcl2” value [6] was “no effect on the levels of Bcl2”, the Rate of apoptosis [7] was “increase the rate of apoptosis” and the “Survival of cancer patients on therapy with CoQ10” value [8] was 5-15 years.
